Measurements reported in ChEMBL document CHEMBL1129486, “(2S,4S)-2-amino-4-(4,4-diphenylbut-1-yl)- pentane-1,5-dioic acid: a potent and selective antagonist for metabotropic glutamate receptors negatively linked to adenylate cyclase” (J Med Chem, 1996).

Tests used:
[1] = Compound was evaluated for its ability to reverse ACPD-induced inhibition of forskolin-stimulated cAMP formation in the human mGluR2 expressing non-neuronal cells.; format: functional
[2] = molecular target: Metabotropic glutamate receptor; experiment: Compound was tested for its ability to displace metabotropic glutamate binding to rat brain membranes using [3H]glutamate radioligand.; format: tissue-based, Membrane

| Compound | IC50 [1] | IC50 [2] |
| --- | --- | --- |
| N[C@@H](C[C@H](CCCC(c1ccccc1)c1ccccc1)C(=O)O)C(=O)O | 18.1 µM | 4.1 µM |
| N[C@@H](C[C@@H](CCCC(c1ccccc1)c1ccccc1)C(=O)O)C(=O)O | 171 µM | 55.3 µM |
| N[C@@H](CC(CCCC(c1ccccc1)c1ccccc1)C(=O)O)C(=O)O (stereo not given in full) | – | 4.2 µM |
